From patent US7048907B2, “Synthesis, compositions and methods for the measurement of the concentration of stable-isotope labeled compounds in life forms and life form excretory products” (BioPhysics Assay Laboratory, Inc., priority 2001, dated 2006)

Tests used:
[1] = Stability of chelates to autoclaving (CM-Sephadex assay); format: physicochemical; details: for % of total / dpm: autoclaved 30 minutes at 121° C.
Description: A sample comprising 5 ml of Sm-DTPA, La-DTPA, and Eu-DTPA prepared in Examples 9, 10, and 11 were placed in 10 ml glass bottles, each capped with a grey butyl rubber cap, and the caps were crimped. Samples were autoclaved for 30 minutes at 121° C.
Five ml of each of Sm-DOTA, La-DOTA, and Eu-DOTA prepared in Examples 13, 14, and 15 were placed in 10 ml glass bottles capped with a grey butyl rubber cap and crimped. Samples were autoclaved for 30 minutes at 121° C. Samples were allowed to cool to room temperature and were assayed as described in Examples 25.

[2] = Kinetics of blood depletion and urine accumulation of chelates in the rat; format: in vivo; details: average of three rats
Description: One half ml of Sm-DTPA (0.01 mg/kg), dissolved in saline (pH 7), is injected into the tail vein of three rats. Samples of blood are obtained at 10, 30 and 60 minutes following injection and analyzed for Sm-DTPA by neutron activation. The percent of starting amount of the Sm-DTPA at each time interval is presented in Table 18 (last column on right). Similarly, the accumulation of Sm-DTPA in the rat urine at two times is shown in the last column of Table 18.
One half ml of Technetium-99m-DTPA (1 millicurie), Gd-DTPA (0.05 mg/kg), and Sm-DTPA (0.01 mg/kg) are each dissolved in saline (pH 7), and are injected simultaneously into the tail vein of three rats. Samples of blood are obtained at 10, 30 and 60 minutes following injection and analyzed for ^99mTc-DTPA (gamma counting), Gd-DTPA (T1 relaxation) and Sm-DTPA (neutron activation).
One half ml of Sm-DTPA, La-DTPA and Eu-DTPA (each 0.01 mg/kg), dissolved in saline (pH 7) are injected simultaneously into the tail vein of three rats. Samples of blood are obtained at 10, 30 and 60 minutes following injection and analyzed for each element by neutron activation.
Samples of Sm-DTPA, La-DTPA and Eu-DTPA (0.5 ml; 0.01 mg/kg), each dissolved in saline (pH 7), are injected sequentially at 0, 20, and 40 minutes into the tail vein of three rats. Samples of blood are obtained at 10, 30 and 60 min following each injection and analyzed for each element by neutron activation.

[3] = Assay of chelate on carboxymethyl (CM) Sephadex column (chelate formation, charge); format: physicochemical; details: for time within which the chelate forms: room temperature, Tris pH 7.5
Description: Preparation of carboxymethyl sephadex column. To two 10 ml plastic pipets cut off at the 3 ml mark and plugged with glass wool at the bottom add enough slurry to form a 2 ml volume of the CM sephadex. Wash the packed resin with 6 ml of 1 M Tris buffer pH 7.5, and 6 ml of 0.01M Tris buffer pH 7.5. […] Collect the eluants of fractions as follows. Fraction 1.3 ml of 0.01 M Tris buffer pH 7.5 and allow to drain into column. Fraction 2.1 ml of sample (gadolinium-DTPA or gadolinium chloride) and allow to drain into column. Apply 3 ml of 0.01 M Tris buffer pH 7.5 and allow to drain into column. Fraction 3.3 ml of 0.01M Tris buffer pH 7.5 and allow to drain into column. Dry all fractions at 70° C. for 76 hours, dissolve in 1 ml of 1 mM HCl and assay by atomic absorption.
(§1) Preparation of carboxymethyl Sephadex column. To two 10 ml plastic pipets which had been cut off at the 3 ml mark and plugged with glass wool at the bottom, enough slurry was added to form a 2 ml volume of the CM Sephadex. The packed resin was wash with 6 ml of 1 M Tris buffer pH 7.5, and 6 ml of 0.01M Tris buffer pH 7.5. […] Fractions were applied as follows. Fraction 1. Three ml of 0.01 M Tris buffer pH 7.5 and allow to drain into column. Fraction 2. One ml of sample (samarium-DTPA or samarium chloride) and allow to drain into column. Apply 3 ml of 0.01 M Tris buffer pH 7.5 and allow to drain into column. Fraction 3. Three ml of 0.01M Tris buffer pH 7.5 and allow to drain into column. Collect the eluant of fractions 1 through 3. Fraction 4. Column and contents.
as §1, with “were” for “had been”, “washed” for “wash”, “(lanthanum-DTPA” for “(samarium-DTPA”, “lanthanum” for “samarium”
as §1, with “were” for “had been”, “washed” for “wash”, “(Europium-DTPA” for “(samarium-DTPA”, “Europium” for “samarium”
Preparation of carboxymethyl sephadex column. To a 10 ml plastic pipet cut off at the 3 ml mark and plugged with glass wool at the bottom, add enough slurry to form a 2 ml volume of the CM sephadex. Wash the packed resin with 6 ml of 1 M Tris buffer pH 7.5, and 6 ml of 0.01M Tris buffer pH 7.5. […] Apply fractions as follows. Fraction 1. One ml of sample A and allow to drain into column.

[4] = Fraction 1: sample diluted 1:10 then 2-3 ml 0.01M Tris pH 7.5 (eluate)
[5] = Fraction 2: 3 ml 0.01M Tris pH 7.5
[6] = Fraction 3: column and contents (retained)
[7] = blood 10 min, Sm-DTPA, La-DTPA and Eu-DTPA (each 0.01 mg/kg i.v.) simultaneously administered (Example 31)
[8] = blood 10 min after each injection, Sm-DTPA, La-DTPA, Eu-DTPA (0.01 mg/kg i.v.) sequentially administered at 0, 20, 40 minutes (Example 32)
[9] = blood 30 min, Sm-DTPA, La-DTPA and Eu-DTPA simultaneously administered (Example 31)
[10] = blood 30 min after each injection, sequentially administered (Example 32)
[11] = blood 60 min, Sm-DTPA, La-DTPA and Eu-DTPA simultaneously administered (Example 31)
[12] = blood 60 min after each injection, sequentially administered (Example 32)
[13] = urine 30 min, Sm-DTPA, La-DTPA and Eu-DTPA simultaneously administered (Example 31)
[14] = urine 30 min, sequentially administered (Example 32)
[15] = urine 180 min, Sm-DTPA, La-DTPA and Eu-DTPA simultaneously administered (Example 31)
[16] = urine 180 min, sequentially administered (Example 32)
[17] = Fraction 1: 3 ml 0.01M Tris pH 7.5 before sample
[18] = Fraction 2: 1 ml sample then 3 ml 0.01M Tris pH 7.5 (eluate)
[19] = Fraction 3: further 3 ml 0.01M Tris pH 7.5
[20] = Fraction 4: column and contents (retained)
[21] = blood 10 min after i.v. injection, ^99mTc-DTPA, Gd-DTPA and Sm-DTPA simultaneously administered (Example 30)
[22] = blood 30 min, ^99mTc-DTPA, Gd-DTPA and Sm-DTPA simultaneously administered (Example 30)
[23] = blood 60 min, ^99mTc-DTPA, Gd-DTPA and Sm-DTPA simultaneously administered (Example 30)
[24] = urine 30 min, ^99mTc-DTPA, Gd-DTPA and Sm-DTPA simultaneously administered (Example 30)
[25] = urine 180 min, ^99mTc-DTPA, Gd-DTPA and Sm-DTPA simultaneously administered (Example 30)

| Compound | % eluted from CM-Sephadex column following autoclaving [1] | % of total [1, 4] | dpm [1, 4] | % of total [1, 5] | dpm [1, 5] | % of total [1, 6] | dpm [1, 6] | Percent of initial injection, blood [2, 7] | Percent of initial injection, blood [2, 8] | Percent of initial injection, blood [2, 9] | Percent of initial injection, blood [2, 10] | Percent of initial injection, blood [2, 11] | Percent of initial injection, blood [2, 12] | Percent of initial injection, urine [2, 13] | Percent of initial injection, urine [2, 14] | % eluted from the CM-Sephadex column [3] | % of total [3, 17] | % of total [3, 18] | % of total [3, 19] | time within which the chelate forms [3] | other results |
| --- | --- | --- | --- | --- | --- | --- | --- | --- | --- | --- | --- | --- | --- | --- | --- | --- | --- | --- | --- | --- | --- |
| O=C([O-])CN(CCN(CC(=O)[O-])CC(=O)[O-])CCN(CC(=O)[O-])CC(=O)[O-].[Eu+3] [Eu-DTPA] | 100% | 97 % of total | 380954 dpm | 3 % of total | 13226 dpm | 0 % of total | 0 dpm | 87% of initial injection | 87% of initial injection | 62% of initial injection | 64% of initial injection | 33% of initial injection | 34% of initial injection | 21% of initial injection | 26% of initial injection | 100% | 0 % of total | 100 % of total | 0 % of total | ≤ 5 min | Percent of initial injection, urine [2, 15]: 96% of initial injection; Percent of initial injection, urine [2, 16]: 97% of initial injection; dpm [3, 17]: 0 dpm; dpm [3, 18]: 22115 dpm; dpm [3, 19]: 0 dpm; % of total [3, 20]: 0 % of total; dpm [3, 20]: 0 dpm |
| O=C([O-])CN(CCN(CC(=O)[O-])CC(=O)O)CCN(CC(=O)[O-])CC(=O)O.[Gd+3] [Gd-DTPA, Gd-diethylenetriaminepentaacetic acid] | – | – | – | – | – | – | – | – | – | – | – | – | – | – | – | 100% | 0 % of total | 100 % of total | 0 % of total | ≤ 5 min | Percent of initial injection, blood [2, 21]: 83% of initial injection; Percent of initial injection, blood [2, 22]: 65% of initial injection; Percent of initial injection, blood [2, 23]: 35% of initial injection; Percent of initial injection, urine [2, 24]: 22% of initial injection; Percent of initial injection, urine [2, 25]: 94% of initial injection |
| O=C([O-])CN(CCN(CC(=O)[O-])CC(=O)[O-])CCN(CC(=O)[O-])CC(=O)[O-].[Sm+3] [Sm-DTPA] | 100% | 98 % of total | 1128928 dpm | 2 % of total | 26387 dpm | 0 % of total | 1867 dpm | 83% of initial injection | 81% of initial injection | 61% of initial injection | 59% of initial injection | 34% of initial injection | 29% of initial injection | 22% of initial injection | 20% of initial injection | 98% | 0 % of total | 97 % of total | 1 % of total | ≤ 5 min | Percent of initial injection, blood ([2]; blood 10 min, Sm-DTPA 0.01 mg/kg i.v. administered alone (Example 29)): 86% of initial injection; Percent of initial injection, blood [2, 21]: 88% of initial injection; Percent of initial injection, blood ([2]; blood 30 min, Sm-DTPA 0.01 mg/kg i.v. administered alone (Example 29)): 61% of initial injection; Percent of initial injection, blood [2, 22]: 60% of initial injection; Percent of initial injection, blood ([2]; blood 60 min, Sm-DTPA 0.01 mg/kg i.v. administered alone (Example 29)): 28% of initial injection; Percent of initial injection, blood [2, 23]: 33% of initial injection; Percent of initial injection, urine ([2]; urine 30 min, Sm-DTPA 0.01 mg/kg i.v. administered alone (Example 29)): 24% of initial injection; Percent of initial injection, urine [2, 24]: 26% of initial injection; Percent of initial injection, urine ([2]; urine 180 min, Sm-DTPA 0.01 mg/kg i.v. administered alone (Example 29)): 91% of initial injection; Percent of initial injection, urine [2, 15]: 90% of initial injection; Percent of initial injection, urine [2, 25]: 90% of initial injection; Percent of initial injection, urine [2, 16]: 89% of initial injection; dpm [3, 17]: 0 dpm; dpm [3, 18]: 148208 dpm; dpm [3, 19]: 19089 dpm; % of total [3, 20]: 2 % of total; dpm [3, 20]: 24257 dpm |
